Results published in ChEMBL document CHEMBL1201862, “PubChem BioAssay data set” (2004).
Active and inactive are the calls of the source.

Tests used:
[1] = biological target: DNA damage-inducible transcript 3 protein (Mus musculus, UniProt P35639); type: functional, Cricetulus griseus
Protein skinhead-1 = biological target: T1, Protein skinhead-1 (Caenorhabditis elegans, UniProt P34707); type: functional
T1 sequence (P34707 whole entry): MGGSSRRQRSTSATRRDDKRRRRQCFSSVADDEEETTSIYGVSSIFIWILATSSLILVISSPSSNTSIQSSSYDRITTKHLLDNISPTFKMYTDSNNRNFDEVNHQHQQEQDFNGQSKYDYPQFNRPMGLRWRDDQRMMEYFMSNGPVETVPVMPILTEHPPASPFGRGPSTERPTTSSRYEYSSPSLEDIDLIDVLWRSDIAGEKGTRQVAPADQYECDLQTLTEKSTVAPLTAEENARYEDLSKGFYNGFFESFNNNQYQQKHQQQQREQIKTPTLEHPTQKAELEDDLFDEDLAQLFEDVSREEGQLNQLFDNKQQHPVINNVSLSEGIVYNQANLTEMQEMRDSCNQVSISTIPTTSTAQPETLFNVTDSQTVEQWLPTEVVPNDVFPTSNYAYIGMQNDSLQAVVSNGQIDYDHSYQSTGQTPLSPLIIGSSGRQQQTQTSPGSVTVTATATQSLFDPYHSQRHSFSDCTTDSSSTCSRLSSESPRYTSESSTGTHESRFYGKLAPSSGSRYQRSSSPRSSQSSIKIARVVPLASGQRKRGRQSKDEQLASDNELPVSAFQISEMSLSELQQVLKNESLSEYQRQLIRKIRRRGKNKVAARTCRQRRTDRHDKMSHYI

[2] = biological target: T2, Short transient receptor potential channel 4 (Mus musculus, UniProt Q9QUQ5); assay: mouse TRPC4 channel inhibitors, dose response, cell-based, HEK293 TRPC4/mu-opioid, Fluo-4 calcium (AID 434942); type: functional;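 also: potency of inhibitors blocking the TRPC4 calcium response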
T2 sequence (Q9QUQ5 whole entry): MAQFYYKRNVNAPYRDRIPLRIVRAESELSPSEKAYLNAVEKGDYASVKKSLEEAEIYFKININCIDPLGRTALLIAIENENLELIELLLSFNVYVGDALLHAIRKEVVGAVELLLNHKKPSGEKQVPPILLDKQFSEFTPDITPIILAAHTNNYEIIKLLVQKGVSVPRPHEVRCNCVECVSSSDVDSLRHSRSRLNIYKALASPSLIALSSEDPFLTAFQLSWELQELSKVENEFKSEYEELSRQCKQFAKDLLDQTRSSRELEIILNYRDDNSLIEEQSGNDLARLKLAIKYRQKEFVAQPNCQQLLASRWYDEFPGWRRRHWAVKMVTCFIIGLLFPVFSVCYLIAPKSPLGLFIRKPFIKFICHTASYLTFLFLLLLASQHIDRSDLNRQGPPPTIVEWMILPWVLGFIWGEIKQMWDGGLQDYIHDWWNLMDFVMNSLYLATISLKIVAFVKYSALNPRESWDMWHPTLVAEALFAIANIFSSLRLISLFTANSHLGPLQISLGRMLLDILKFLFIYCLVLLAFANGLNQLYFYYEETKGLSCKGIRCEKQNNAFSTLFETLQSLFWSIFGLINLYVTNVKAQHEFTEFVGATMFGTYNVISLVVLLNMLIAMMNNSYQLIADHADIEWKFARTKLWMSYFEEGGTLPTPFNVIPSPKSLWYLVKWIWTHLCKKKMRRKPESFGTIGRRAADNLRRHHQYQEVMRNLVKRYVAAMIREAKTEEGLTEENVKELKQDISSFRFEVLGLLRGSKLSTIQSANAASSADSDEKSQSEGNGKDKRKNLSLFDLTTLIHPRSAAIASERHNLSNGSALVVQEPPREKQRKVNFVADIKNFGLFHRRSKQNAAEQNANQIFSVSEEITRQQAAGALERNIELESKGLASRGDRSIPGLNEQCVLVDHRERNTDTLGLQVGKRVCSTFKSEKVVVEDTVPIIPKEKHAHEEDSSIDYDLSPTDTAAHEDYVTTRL

HEK293 [3] = assay: NOD1 signaling inhibitors, primary screen, cell-based, luminescence, uHTS (AID 1578); type: functional; conditions: Homo sapiens
[4] = tested on: Streptococcus sp. 'group A'; assay: growth inhibition of control SK(-) GAS strain, dose response, counter-screen for streptokinase expression inhibitor project, luminescence, kanamycin, BacTiterGlo, confirmation (AID 1900); type: functional, organism-based
HEK293 [5] = assay: cells; type: functional, cell-based; conditions: Homo sapiens
Streptokinase A = biological target: T3, Streptokinase A (Streptococcus pyogenes serotype M1, UniProt P10520); assay: S. pyogenes streptokinase expression inhibitors, potency, dose response, plasminogen activation absorbance, OD405 (AID 1914); type: functional, Streptococcus pyogenes M1 GAS;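 also: secreted streptokinase activity via plasminogen activation per viability signal from cell pellet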
T3 sequence (P10520 whole entry): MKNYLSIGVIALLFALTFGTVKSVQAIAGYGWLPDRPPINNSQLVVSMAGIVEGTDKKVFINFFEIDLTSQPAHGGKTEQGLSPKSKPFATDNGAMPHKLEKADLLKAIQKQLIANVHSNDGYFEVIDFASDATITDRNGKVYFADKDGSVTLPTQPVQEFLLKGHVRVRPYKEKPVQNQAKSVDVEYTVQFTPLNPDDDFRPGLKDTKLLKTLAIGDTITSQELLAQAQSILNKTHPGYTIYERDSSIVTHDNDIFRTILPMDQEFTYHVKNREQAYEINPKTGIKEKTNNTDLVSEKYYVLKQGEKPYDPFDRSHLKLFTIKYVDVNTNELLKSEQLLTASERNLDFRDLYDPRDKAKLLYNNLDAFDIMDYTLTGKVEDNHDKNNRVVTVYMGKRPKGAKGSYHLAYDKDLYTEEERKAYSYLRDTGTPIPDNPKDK

HEK293 [6] = assay: cells; type: functional, cell-based; conditions: Homo sapiens; remark: listed apart in the source
[7] = biological target: Nucleotide-binding oligomerization domain-containing protein 2 (Homo sapiens, UniProt Q9HC29); assay: NOD2 signaling inhibitors, cell-based, luminescence, uHTS, HEK293 (AID 1566); type: functional
HEK293 [8] = assay: NOD2 signaling inhibitors in MDP-stimulated cells, cell-based, uHTS, luminescence (AID 2001); type: functional; conditions: Homo sapiens
HEK293 [9] = assay: cells; type: functional, cell-based; conditions: Homo sapiens; remark: listed apart in the source
Streptococcus = assay: Group A Streptococcus viability loss, dose response, counter-screen for streptokinase expression inhibitor project, luminescence, BacTiterGlo (AID 1915); type: functional, organism-based;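 also: potency for reduction of bacterial viability or growth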
[10] = inhibitors of firefly luciferase expression or activity, dose response, H4 neuroglioma cells, luminescence (AID 1990); type: functional, cell-based
[11] = Luminescence Cell-Based Dose Response HTS to Identify Inhibitors of 5'UTR Stem-Loop Driven Prion Protein mRNA Translation in H4 Neuroglioblastoma Cells. [Related pubchem assays: 1827 (Project Summary), 1813 (Primary HTS)]; type: functional
[12] = inhibitors of SNCA 5'UTR-driven reporter translation, confirmation, H4 neuroglioma cells, luminescence (AID 1988); type: functional, cell-based
[13] = cytotoxicity in HEK-293T cells, dose response, cytotoxicity control for BCR NF-kB inhibitor project, luminescence, B-cell screen hits (AID 489021); type: functional, cell-based;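 also: HEK-293T cells carrying an NF-kB luciferase reporter; cells exposed to compound for about 14 hours before viability readout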
Cytochrome P450 1A2 = biological target: T4, Cytochrome P450 1A2 (Homo sapiens, UniProt P05177);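 also: PubChem cytochrome P450 panel assay, CYP1A2 panel member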
T4 sequence (P05177 whole entry): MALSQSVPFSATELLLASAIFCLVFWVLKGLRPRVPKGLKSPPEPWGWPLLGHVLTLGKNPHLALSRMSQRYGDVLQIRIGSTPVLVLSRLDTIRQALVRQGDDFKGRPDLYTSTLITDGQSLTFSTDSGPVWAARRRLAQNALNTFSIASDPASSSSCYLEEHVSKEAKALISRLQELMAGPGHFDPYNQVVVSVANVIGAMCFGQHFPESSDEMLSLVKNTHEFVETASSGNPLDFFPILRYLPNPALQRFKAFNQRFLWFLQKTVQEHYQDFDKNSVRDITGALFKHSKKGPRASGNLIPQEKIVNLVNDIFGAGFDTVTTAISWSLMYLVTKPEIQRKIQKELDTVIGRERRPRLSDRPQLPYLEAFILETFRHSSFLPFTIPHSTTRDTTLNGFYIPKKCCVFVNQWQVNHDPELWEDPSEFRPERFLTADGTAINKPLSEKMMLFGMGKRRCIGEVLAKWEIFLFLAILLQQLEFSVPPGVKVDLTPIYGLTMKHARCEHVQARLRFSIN

[14] = biological target: T5, Peroxisome proliferator-activated receptor gamma/Nuclear receptor coactivator 1 (Homo sapiens, UniProt P37231); assay: TR-FRET dose response biochemical High Throughput Screening assay for agonists of the steroid receptor coactivator 1 (SRC-1) recruitment by the peroxisome proliferator-activated receptor gamma (PPAR gamma): non-selective agonists. [Related pubchem assays (depositor defined):AID1300, AID1808, AID504735, AID631]; type: protein assay
[15] = biological target: T6, Peroxisome proliferator-activated receptor gamma/Nuclear receptor coactivator 3 (Homo sapiens, UniProt P37231); assay: TR-FRET dose response biochemical High Throughput Screening assay for agonists of the steroid receptor coactivator 3 (SRC-3) recruitment by the peroxisome proliferator-activated receptor gamma (PPAR gamma): non-selective agonists. [Related pubchem assays: 1301 (Confirmation screen.), 1048 (Primary screen.)]; type: functional
T6 sequence (P37231 whole entry): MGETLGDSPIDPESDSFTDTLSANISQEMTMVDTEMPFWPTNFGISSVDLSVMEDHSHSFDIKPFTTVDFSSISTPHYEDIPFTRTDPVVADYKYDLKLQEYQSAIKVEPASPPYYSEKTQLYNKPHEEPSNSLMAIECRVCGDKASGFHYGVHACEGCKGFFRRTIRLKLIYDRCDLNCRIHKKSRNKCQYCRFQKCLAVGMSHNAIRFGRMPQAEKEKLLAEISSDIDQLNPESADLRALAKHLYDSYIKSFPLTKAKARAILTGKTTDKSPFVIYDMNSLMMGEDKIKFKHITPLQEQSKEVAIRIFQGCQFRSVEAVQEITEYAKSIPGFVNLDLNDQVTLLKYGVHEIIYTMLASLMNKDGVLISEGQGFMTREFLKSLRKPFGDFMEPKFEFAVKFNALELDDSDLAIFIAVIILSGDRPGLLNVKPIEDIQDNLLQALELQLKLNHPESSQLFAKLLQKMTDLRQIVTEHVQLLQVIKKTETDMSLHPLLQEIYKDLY
T6 sequence (Q9Y6Q9 whole entry, further chain): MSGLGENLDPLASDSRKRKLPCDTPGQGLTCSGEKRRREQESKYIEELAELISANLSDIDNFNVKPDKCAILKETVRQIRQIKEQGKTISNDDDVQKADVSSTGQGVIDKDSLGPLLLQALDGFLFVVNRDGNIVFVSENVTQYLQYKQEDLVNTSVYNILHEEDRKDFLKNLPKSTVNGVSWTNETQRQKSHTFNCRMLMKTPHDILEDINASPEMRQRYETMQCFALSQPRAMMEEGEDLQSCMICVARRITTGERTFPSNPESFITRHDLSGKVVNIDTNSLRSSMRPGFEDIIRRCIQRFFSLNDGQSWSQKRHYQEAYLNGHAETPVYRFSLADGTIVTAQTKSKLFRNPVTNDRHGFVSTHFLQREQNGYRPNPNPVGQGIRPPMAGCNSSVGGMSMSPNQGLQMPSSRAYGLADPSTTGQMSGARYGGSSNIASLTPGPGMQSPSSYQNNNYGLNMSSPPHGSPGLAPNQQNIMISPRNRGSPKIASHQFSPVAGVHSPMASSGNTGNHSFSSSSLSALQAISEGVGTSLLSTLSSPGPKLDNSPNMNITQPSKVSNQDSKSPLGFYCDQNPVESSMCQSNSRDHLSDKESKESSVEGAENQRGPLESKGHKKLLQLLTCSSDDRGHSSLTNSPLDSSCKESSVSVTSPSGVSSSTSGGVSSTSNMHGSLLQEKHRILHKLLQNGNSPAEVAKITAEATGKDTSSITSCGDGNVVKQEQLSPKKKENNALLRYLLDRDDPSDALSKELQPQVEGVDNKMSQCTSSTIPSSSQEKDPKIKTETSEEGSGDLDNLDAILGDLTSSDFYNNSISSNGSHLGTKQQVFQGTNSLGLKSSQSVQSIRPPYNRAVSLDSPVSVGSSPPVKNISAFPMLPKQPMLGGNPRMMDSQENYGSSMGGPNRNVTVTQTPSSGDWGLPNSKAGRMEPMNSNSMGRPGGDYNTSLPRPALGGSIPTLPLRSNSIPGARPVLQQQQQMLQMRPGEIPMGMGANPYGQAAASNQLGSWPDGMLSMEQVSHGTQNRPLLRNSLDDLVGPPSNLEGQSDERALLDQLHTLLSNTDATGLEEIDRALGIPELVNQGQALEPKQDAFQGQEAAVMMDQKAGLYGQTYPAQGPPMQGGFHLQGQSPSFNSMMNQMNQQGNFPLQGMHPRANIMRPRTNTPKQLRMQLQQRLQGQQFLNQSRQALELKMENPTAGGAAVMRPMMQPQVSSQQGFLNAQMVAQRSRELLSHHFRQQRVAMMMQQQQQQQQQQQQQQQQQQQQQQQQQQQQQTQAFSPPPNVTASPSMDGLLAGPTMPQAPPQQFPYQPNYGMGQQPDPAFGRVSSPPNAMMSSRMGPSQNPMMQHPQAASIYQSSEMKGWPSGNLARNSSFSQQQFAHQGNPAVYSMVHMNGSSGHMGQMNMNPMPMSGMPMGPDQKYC

[16] = biological target: T7, Peroxisome proliferator-activated receptor gamma/Nuclear receptor coactivator 2 (Homo sapiens, UniProt P37231); assay: TR-FRET dose response biochemical High Throughput Screening assay for agonists of the steroid receptor coactivator 2 (SRC-2) recruitment by the peroxisome proliferator-activated receptor gamma (PPAR gamma): non-selective agonists. [Related pubchem assays: 1297, 1032 ]; type: functional
T7 sequence (P37231 whole entry): as the sequence (P37231 whole entry) above
T7 sequence (Q15596 whole entry, further chain): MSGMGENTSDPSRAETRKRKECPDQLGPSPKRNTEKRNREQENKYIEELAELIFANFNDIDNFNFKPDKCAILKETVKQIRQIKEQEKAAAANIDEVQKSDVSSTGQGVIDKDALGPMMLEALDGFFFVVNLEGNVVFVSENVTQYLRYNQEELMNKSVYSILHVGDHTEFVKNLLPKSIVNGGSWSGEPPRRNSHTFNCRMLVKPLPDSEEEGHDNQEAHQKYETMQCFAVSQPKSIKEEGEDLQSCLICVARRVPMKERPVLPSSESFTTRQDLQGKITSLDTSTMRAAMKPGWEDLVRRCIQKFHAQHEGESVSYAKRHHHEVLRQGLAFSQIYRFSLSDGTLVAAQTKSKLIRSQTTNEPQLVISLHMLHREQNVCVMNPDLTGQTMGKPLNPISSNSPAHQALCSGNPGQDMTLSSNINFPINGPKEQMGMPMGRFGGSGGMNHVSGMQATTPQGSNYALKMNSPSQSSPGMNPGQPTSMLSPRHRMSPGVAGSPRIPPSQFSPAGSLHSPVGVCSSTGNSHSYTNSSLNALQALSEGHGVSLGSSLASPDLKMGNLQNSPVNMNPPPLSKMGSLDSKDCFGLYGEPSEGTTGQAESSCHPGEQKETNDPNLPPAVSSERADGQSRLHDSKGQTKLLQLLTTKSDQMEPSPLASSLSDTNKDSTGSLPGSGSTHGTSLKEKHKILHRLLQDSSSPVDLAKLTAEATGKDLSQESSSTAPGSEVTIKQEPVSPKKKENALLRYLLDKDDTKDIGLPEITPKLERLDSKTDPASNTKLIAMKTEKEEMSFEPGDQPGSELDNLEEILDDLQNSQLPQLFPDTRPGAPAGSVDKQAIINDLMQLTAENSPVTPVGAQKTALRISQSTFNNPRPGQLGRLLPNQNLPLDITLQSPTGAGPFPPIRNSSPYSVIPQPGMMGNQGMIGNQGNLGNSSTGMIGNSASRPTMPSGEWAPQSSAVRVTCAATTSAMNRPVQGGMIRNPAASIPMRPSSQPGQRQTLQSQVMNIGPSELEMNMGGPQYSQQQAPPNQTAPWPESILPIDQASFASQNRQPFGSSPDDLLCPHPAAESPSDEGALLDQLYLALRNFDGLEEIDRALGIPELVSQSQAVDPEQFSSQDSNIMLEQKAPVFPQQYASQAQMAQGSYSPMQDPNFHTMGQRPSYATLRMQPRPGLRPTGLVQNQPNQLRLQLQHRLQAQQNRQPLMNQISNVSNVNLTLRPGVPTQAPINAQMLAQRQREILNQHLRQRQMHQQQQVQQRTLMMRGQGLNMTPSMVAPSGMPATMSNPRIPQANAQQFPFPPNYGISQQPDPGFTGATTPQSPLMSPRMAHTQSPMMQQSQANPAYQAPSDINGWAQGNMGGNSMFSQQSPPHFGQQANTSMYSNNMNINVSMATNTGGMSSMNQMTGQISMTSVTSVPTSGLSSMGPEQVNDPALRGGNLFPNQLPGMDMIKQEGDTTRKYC

[17] = biological target: T7, Peroxisome proliferator-activated receptor gamma/Nuclear receptor coactivator 2; type: functional
[18] = biological target: T5, Peroxisome proliferator-activated receptor gamma/Nuclear receptor coactivator 1; type: functional
[19] = biological target: T6, Peroxisome proliferator-activated receptor gamma/Nuclear receptor coactivator 3; type: functional
[20] = biological target: T8, Calpain-2 catalytic subunit (Sus scrofa, UniProt P43367); assay: pig calpain II inhibitor potency, dose response, biochemical, fluorogenic peptide substrate (AID 1420); type: functional
T8 sequence (P43367 whole entry): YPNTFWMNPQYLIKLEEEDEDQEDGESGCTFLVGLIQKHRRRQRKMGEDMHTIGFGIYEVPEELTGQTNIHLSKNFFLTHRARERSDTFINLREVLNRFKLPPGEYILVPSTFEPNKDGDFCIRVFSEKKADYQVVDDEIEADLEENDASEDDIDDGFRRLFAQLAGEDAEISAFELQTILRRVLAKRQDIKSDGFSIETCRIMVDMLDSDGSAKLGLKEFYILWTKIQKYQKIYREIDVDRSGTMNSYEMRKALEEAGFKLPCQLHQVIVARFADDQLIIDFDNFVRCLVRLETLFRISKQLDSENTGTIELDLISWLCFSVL

[21] = growth suppression of PTEN-null colon cells, dose response, cell-based, HCT116 PTEN knockout (AID 1047); type: functional;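 also: HCT116 colon tumor cells with PTEN knocked out; cells exposed to compound for 60 hours before readout; potency for loss of cell viability measured by luminescence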
[22] = growth suppression of beta-catenin-knockout colon cells, dose response, cell-based, HCT116, human colon tumor (AID 1045); type: functional;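 also: HCT116 colon tumor cells with beta catenin knocked out; cells exposed to compound for 60 hours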

Sequence of DNA damage-inducible transcript 3 protein (P35639 whole entry): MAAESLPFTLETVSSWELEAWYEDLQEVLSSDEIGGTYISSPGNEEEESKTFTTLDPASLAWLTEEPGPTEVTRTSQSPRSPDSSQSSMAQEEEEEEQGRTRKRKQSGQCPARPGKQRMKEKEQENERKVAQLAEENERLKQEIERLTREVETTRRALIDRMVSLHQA

Compound: COC(=O)CN1C(=S)N(Cc2ccccc2)C(=O)C1CC(=O)Nc1ccc(Br)cc1 (stereo unspecified)
- Absolute IC50 (CHOP) [1]: 10 µM
- IC50 (Protein skinhead-1): > 100 µM (inactive)

Compound: C=CCSc1nnc2n(-c3ccccc3OC)c(=O)c3c4c(sc3n12)CCC4
- EC50 [2]: 4.73 µM (active)

Compound: O=C(COc1ccc(F)cc1)c1c(O)cc(O)cc1O
- EC50 [2]: 3.35 µM (active)

Compound: CN(C)C=O.N#Cc1ccc(Cl)cc1NC(=O)CSc1nc(O)c2c(C(F)(F)F)cc(-c3cccs3)nc2n1
- EC50 (HEK293 [3]): 5.63 µM (active)
- EC50 [4]: 7.34 µM (active)
- IC50 (HEK293 [5]): 9.55 µM (active)
- EC50 (Streptokinase A): > 150 µM (not active)
- IC50 (HEK293 [6]): > 20 µM (inactive)
- EC50 [7]: 8.42 µM (active)
- IC50 (HEK293 [8]): 6.22 µM (inactive)
- IC50 (HEK293 [9]): > 20 µM (inactive)
- EC50 (Streptococcus): > 150 µM (not active)

Compound: Cc1ccc(/C=C2\SC(=S)N(CCCC(=O)Nc3cc(C)on3)C2=O)cc1
- EC50 [10]: 15.3 µM (active)
- EC50 [11]: 51.7 µM (active)
- EC50 [12]: 14.6 µM (active)
- IC50 [13]: > 80 µM (inactive)

Compound: CCN(C(=O)c1cnc(N2CCN(c3ncccn3)CC2)c2ccccc12)c1cccc(Cl)c1
- EC50 (HEK293 [3]): 5.39 µM (active)
- IC50 (HEK293 [5]): 3.5 µM (active)
- IC50 (HEK293 [6]): 8.34 µM (active)
- EC50 [7]: 7.19 µM (active)
- IC50 (HEK293 [8]): 4.17 µM (active)
- IC50 (HEK293 [9]): > 20 µM (inactive)
- AC50 (Cytochrome P450 1A2): 15.8 µM (inconclusive)

Compound: S=C(Nc1ccccc1)Nc1cc(Cl)ccc1Oc1ccccc1
- EC50 [2]: 4.73 µM (active)

Compound: CCn1c(=O)cc(SCC(=O)NCc2ccccn2)c2ccccc21
- EC50 [14]: > 79.4 µM (inactive)
- EC50 [15]: > 79.4 µM (not active)
- EC50 [16]: > 79.4 µM (not active)

Compound: CCCCC(CC)c1nnc(NC(=O)c2cccs2)s1 (stereo unspecified)
- EC50 [17]: > 79.4 µM (not active)
- EC50 [18]: > 79.4 µM (not active)
- EC50 [19]: > 79.4 µM (not active)
- IC50 [20]: 8.06 µM (not active)
- EC50 [2]: 5.31 µM (active)

Compound: CSc1nc(O)c2cnn(-c3ccc(C)c(C)c3)c2n1
- EC50 [21]: 26.2 µM (active)
- EC50 [22]: 27.6 µM (active)
- Absolute IC50 (CHOP) [1]: 10 µM
